The conditions of data set [1]: octanol-water, cited from earlier work.
The conditions of data set [2]: cited from earlier work; for Water solubility g/L (20° C.) / water solubility: 20° C.
Data set [3] in a line: Partitioning of components between the aqueous and non-aqueous phase of the biphasic solution (Example 4). It is filed as physicochemical. Conditions: aqueous pH 1 (H2SO4), calculated ionic strength 3.0 M (Na2SO4) / MN, 1:1 volume. An excerpt:
The non-aqueous phase solution contains MN, PBA, and furfural. The biphasic solution was mixed to allow adequate contact amongst the various components, and the biphasic solution was subsequently allowed to settle into the two phases: aqueous and non-aqueous.

Where two headings read alike, the source gives them in different places.

Usually LogP stands for the decadic logarithm of the partition coefficient of the neutral form, usually between octanol and water.

Take `Cc1cccc(O)c1` [Cresol (m)]: the lipophilicity (LogP) in data set [1] (Table 2 solvents) is given as 1.94.
For the compound `Cc1ccccc1B(O)O` [o-tolylboronic acid], the lipophilicity (LogP) in data set [1] (Table 1 boronic acids) was 2.05. The “Water solubility g/L (20° C.)” value in data set [2] (Table 1 boronic acids) was “Slightly”.
As to `CCCCB(O)O` [butylboronic acid], the log partition coefficient (LogP) in data set [1] (Table 1 boronic acids) is 1.43. In addition, the “Water solubility g/L (20° C.)” value in data set [2] (Table 1 boronic acids) was 25 g/L.
For `CCCCCCCCO` [1-octanol], the lipophilicity (LogP) in data set [1] (Table 2 solvents) is on record as 3.10. Also, the “Water solubility g/L (20° C.)” value in data set [2] (Table 2 solvents) is 0.3 g/L.
On to `CC(C)CB(O)O` [(2-methylpropyl) boronic acid], for which the LogP in data set [1] (Table 1 boronic acids) is recorded as 0.6. For the same compound, the “Water solubility g/L (20° C.)” value in data set [2] (Table 1 boronic acids) was 33 g/L.
Turning to `OB(O)CCc1ccccc1` [Phenethyl boronic acid], the LogP in data set [1] (Table 1 boronic acids) was 1.20. The “Water solubility g/L (20° C.)” value in data set [2] (Table 1 boronic acids) was 1.8 g/L.
For `CCCCCCCCB(O)O` [octylboronic acid], the LogP in data set [1] (Table 1 boronic acids) and in data set [1] was 3.56 throughout. Moreover, the “Water solubility g/L (20° C.)” value in data set [2] (Table 1 boronic acids) was “Insoluble”. Besides, in data set [2], the water solubility entry is on record as “water-insoluble”.
For the compound `c1ccc2occc2c1` [Benzofuran], in data set [1] (Table 2 solvents), the log partition coefficient (LogP) is listed as 2.67. Moreover, the “Water solubility g/L (20° C.)” value in data set [2] (Table 2 solvents) is “insoluble”.
Consider `OB(O)C1CCCCC1` [Cyclohexyl boronic acid], for which the LogP in data set [1] (Table 1 boronic acids) is 1.90. The “Water solubility g/L (20° C.)” value in data set [2] (Table 1 boronic acids) is 25 g/L.
Turning to `COc1ccccc1` [anisole], the “Water solubility g/L (20° C.)” value in data set [2] (Table 2 solvents) is given as 1.5 g/L.
In the case of `CCc1ccc(B(O)O)cc1` [4-ethylphenyl boronic acid], the lipophilicity (LogP) in data set [1] (Table 1 boronic acids) is recorded as 2.58.
As for `CC(C)(C)c1ccc(B(O)O)cc1` [4-tert-Butylphenyl boronic acid], the LogP in data set [1] (Table 1 boronic acids) is given as 3.28. The “Water solubility g/L (20° C.)” value in data set [2] (Table 1 boronic acids) is “Insoluble”.
Turning to `O=S(=O)([O-])[O-].[Na+].[Na+]` [Salt (based on 2Na), Na2SO4], in data set [3], the “mol % of the component in Aqueous Phase with respect to the biphasic solution” value was “(>99 mol %)”, the “mol % of the component in Non-aqueous Phase with respect to the biphasic solution” value is “(0.2 mol %)”, the “molar concentration in Aqueous Phase” value is on record as 1M and the “molar concentration in Non-aqueous Phase” value was 2 mM. In addition, the “mol % of the component in Aqueous Phase with respect to the biphasic solution” value in data set [3] (listed as Na2SO4) is listed as “over 99 mol %”.
For Methylnaphtalene [MN], in data set [3], the “molar concentration in Aqueous Phase” value is 2 mM and the “molar concentration in Non-aqueous Phase” value is recorded as 7.03M.
Take `OB(O)c1cccc2ccccc12` [naphthalene-1-boronic acid]: the “Water solubility g/L (20° C.)” value in data set [2] (Table 1 boronic acids) is recorded as 0.3 g/L.
Take `O=Cc1ccco1` [Furfural]: in data set [3], the “mol % of the component in Non-aqueous Phase with respect to the biphasic solution” value was “(88 mol %)”, the “molar concentration in Aqueous Phase” value is 46 mM and the “molar concentration in Non-aqueous Phase” value is listed as 352 mM. For the same compound, the “mol % of the component in Non-aqueous Phase with respect to the biphasic solution” value in data set [3] (listed as furfural) is recorded as 88 mol %.
`Cc1cccc(B(O)O)c1` [m-tolylboronic acid]: the LogP in data set [1] (Table 1 boronic acids) is recorded as 2.05. In addition, the “Water solubility g/L (20° C.)” value in data set [2] (Table 1 boronic acids) is 25 g/L.
Regarding `Cc1cccc(C)c1O` [2,6 xylenol], the LogP in data set [1] (Table 2 solvents) is reported as 2.40.
Regarding `COc1ccccc1O` [guaiacol], in data set [1] (Table 2 solvents), the log partition coefficient (LogP) is 0.97. In addition, the “Water solubility g/L” value in data set [2] (25° C., Table 2 solvents) is 18.7 (25° C.) g/L.
Regarding `OB(O)c1ccc2ccccc2c1` [2-naphthylboronic acid], the LogP in data set [1] (Table 1 boronic acids) and in data set [1] was 2.82 in each case. The “Water solubility g/L (20° C.)” value in data set [2] (Table 1 boronic acids) was 0.3 g/L. Further, the water solubility in data set [2] is recorded as 0.03 wt %.
As to `CCCCc1ccc(B(O)O)cc1` [4-butylphenyl boronic acid], the LogP in data set [1] (Table 1 boronic acids) is 3.64. The “Water solubility g/L (20° C.)” value in data set [2] (Table 1 boronic acids) is given as “Insoluble”.
Take `CCc1ccccc1` [Ethylbenzene]: in data set [1] (Table 2 solvents), the LogP is listed as 2.96. In addition, the “Water solubility g/L (20° C.)” value in data set [2] (Table 2 solvents) is 0.15 g/L.
Turning to `CC(C)OC(C)C` [Diisopropyl ether], the LogP in data set [1] (Table 2 solvents) was 2.03. Besides, the “Water solubility g/L (20° C.)” value in data set [2] (Table 2 solvents) was 1.7 g/L.
For the compound `CCCCCCC` [heptane], the LogP in data set [1] (Table 2 solvents) is recorded as 4.47. Moreover, the “Water solubility g/L (20° C.)” value in data set [2] (Table 2 solvents) was 0.003 g/L.
For `CCc1ccc(O)cc1` [4Et-phenol], the lipophilicity (LogP) in data set [1] (Table 2 solvents) is 2.47. In addition, the “Water solubility g/L (20° C.)” value in data set [2] (Table 2 solvents) is 6.1 g/L.
For the compound `OB(O)c1ccccc1` [phenylboronic acid], in data set [1] (Table 1 boronic acids), the log partition coefficient (LogP) is 1.59. Also, in data set [3], the “molar concentration in Aqueous Phase” value is listed as 129 mM and the “molar concentration in Non-aqueous Phase” value is reported as 566 mM. Besides, the “Water solubility g/L (20° C.)” value in data set [2] (Table 1 boronic acids) is 10 g/L. Further, the water solubility in data set [2] was 1 wt %.

Source of the values: patent publication US20220194914A1, “METHODS AND SYSTEMS FOR PRODUCTION OF FURFURAL” (SHELL OIL COMPANY, priority 2020, published 2022).
